The text below walks through data of patent US9096500B2, “Acyl sulfonamide compounds” (Pfizer Limited, priority 2010, dated 2015).

The target in the test is T1, Nav1.7 (or SCN9A) channel (Homo sapiens, UniProt Q15858).
T1 construct: expressed in transfected cells
T1 sequence (Q15858 whole entry): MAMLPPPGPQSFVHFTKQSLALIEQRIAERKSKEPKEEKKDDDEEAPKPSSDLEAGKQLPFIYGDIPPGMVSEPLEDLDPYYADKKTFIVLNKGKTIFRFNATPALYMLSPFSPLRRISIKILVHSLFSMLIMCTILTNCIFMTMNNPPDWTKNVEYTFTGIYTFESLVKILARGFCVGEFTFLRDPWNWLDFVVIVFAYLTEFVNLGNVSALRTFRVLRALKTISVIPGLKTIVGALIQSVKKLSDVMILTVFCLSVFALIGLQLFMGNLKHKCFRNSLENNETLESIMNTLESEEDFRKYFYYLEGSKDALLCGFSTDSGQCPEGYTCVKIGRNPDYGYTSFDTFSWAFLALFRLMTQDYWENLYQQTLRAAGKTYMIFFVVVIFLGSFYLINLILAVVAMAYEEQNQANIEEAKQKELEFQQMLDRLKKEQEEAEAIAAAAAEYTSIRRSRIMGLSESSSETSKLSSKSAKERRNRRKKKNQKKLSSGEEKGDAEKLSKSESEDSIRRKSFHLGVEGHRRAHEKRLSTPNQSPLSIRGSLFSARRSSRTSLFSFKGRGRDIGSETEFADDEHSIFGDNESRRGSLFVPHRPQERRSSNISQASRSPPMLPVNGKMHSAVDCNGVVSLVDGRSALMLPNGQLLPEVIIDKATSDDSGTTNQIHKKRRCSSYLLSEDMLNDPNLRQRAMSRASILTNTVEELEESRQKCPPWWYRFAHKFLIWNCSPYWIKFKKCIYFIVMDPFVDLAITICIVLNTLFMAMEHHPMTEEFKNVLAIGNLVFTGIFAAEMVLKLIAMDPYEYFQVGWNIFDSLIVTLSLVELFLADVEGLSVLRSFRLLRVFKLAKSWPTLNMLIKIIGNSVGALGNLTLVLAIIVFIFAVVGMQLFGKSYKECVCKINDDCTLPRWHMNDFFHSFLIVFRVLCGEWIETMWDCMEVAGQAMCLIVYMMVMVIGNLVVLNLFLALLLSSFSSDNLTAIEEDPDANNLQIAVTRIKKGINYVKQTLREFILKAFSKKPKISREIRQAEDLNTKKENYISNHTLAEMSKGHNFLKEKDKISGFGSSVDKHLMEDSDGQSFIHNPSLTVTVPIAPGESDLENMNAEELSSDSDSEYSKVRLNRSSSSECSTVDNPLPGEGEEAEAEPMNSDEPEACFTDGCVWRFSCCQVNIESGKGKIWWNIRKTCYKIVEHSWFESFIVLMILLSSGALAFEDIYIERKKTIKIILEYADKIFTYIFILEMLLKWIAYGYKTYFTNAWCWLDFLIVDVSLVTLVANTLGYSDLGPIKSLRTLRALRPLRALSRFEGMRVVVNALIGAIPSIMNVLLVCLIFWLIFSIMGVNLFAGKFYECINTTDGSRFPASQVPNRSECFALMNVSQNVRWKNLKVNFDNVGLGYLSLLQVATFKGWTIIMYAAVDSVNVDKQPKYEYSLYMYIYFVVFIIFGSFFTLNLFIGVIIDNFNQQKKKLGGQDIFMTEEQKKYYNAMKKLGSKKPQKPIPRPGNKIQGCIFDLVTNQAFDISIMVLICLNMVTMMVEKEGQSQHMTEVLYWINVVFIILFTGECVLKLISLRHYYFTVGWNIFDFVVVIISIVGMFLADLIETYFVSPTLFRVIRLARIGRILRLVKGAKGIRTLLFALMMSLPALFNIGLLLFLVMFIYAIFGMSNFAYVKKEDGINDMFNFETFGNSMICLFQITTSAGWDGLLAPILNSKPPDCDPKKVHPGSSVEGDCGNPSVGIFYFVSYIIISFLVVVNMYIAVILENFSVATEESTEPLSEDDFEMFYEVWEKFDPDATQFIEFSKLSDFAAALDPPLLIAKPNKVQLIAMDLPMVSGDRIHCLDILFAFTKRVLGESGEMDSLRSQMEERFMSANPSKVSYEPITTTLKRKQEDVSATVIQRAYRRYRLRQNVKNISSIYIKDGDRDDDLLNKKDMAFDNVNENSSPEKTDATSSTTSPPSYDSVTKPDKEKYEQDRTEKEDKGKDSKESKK
Description: Nav1.7 (hSCN9A) electrophysiology assay, PatchXpress platform. Conditions: estimated IC50 from single point electrophysiology data, HEK cells stably expressing hSCN9A, held at V1/2 of inactivation, read-out: Nav1.7 EIC50. Type of test: cell-based. The essentials:
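HEK cells stably expressing hSCN9A were recorded by whole-cell voltage clamp, including on PatchXpress, at 22–24°C with extracellular solution at pH 7.4. A 20 msec step to 0 mV followed an 8 s conditioning prepulse to the empirically determined inactivation V1/2. Inhibition was taken from current amplitude before vs after compound.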
With `CS(=O)(=O)NC(=O)c1cc(F)c(COc2c(F)cccc2Cl)cc1F` [Example 149, 4-[(2-chloro-6-fluorophenoxy)methyl]-2,5-difluoro-N-(methylsulfonyl)benzamide], the IC50 is 4 µM.
Take `COc1cc(C)cc(OCc2cc(F)c(C(=O)NS(C)(=O)=O)cc2F)c1` [Example 150, 2,5-difluoro-4-[(3-methoxy-5-methylphenoxy)methyl]-N-(methylsulfonyl)benzamide]: the IC50 was 0.5 µM.
Regarding `Cc1ccc(OCc2cc(F)c(C(=O)NS(C)(=O)=O)cc2F)cc1Cl` [Example 151, 4-[(3-chloro-4-methylphenoxy)methyl]-2,5-difluoro-N-(methylsulfonyl)benzamide], the IC50 was 0.065 µM.
Turning to `CS(=O)(=O)NC(=O)c1cc(F)c(COc2ccc(F)cc2C#N)cc1F` [Example 153, 4-[(2-cyano-4-fluorophenoxy)methyl]-2,5-difluoro-N-(methylsulfonyl)benzamide], the IC50 is 12 µM.
For `CS(=O)(=O)NC(=O)c1cc(F)c(COc2cccc(C#N)c2)cc1F` [Example 154, 4-[(3-cyanophenoxy)methyl]-2,5-difluoro-N-(methylsulfonyl)benzamide], the IC50 is 11 µM.
With `COc1ccc(OCc2cc(F)c(C(=O)NS(C)(=O)=O)cc2F)c(F)c1F` [Example 155, 4-[(2,3-difluoro-4-methoxyphenoxy)methyl]-2,5-difluoro-N-(methylsulfonyl)benzamide], the IC50 is 3.2 µM.
Turning to `COc1ccc2cccc(OCc3cc(F)c(C(=O)NS(C)(=O)=O)cc3F)c2c1` [Example 156, 2,5-difluoro-4-{[(7-methoxy-1-naphthyl)oxy]methyl}-N-(methylsulfonyl)benzamide], the IC50 is 2.3 µM.
The result for `COc1ccc(OCc2cc(F)c(C(=O)NS(C)(=O)=O)cc2F)c(Cl)c1` [Example 157, 4-[(2-chloro-4-methoxyphenoxy)methyl]-2,5-difluoro-N-(methylsulfonyl)benzamide] reads 2.1 µM.
With `CS(=O)(=O)NC(=O)c1cc(F)c(COc2ccc(F)cc2)cc1F` [Example 158, 2,5-difluoro-4-[(4-fluorophenoxy)methyl]-N-(methylsulfonyl)benzamide], the IC50 is 1.5 µM.
With `Cc1cc(OCc2cc(F)c(C(=O)NS(C)(=O)=O)cc2F)ccc1Cl` [Example 159, 4-[(4-chloro-3-methylphenoxy)methyl]-2,5-difluoro-N-(methylsulfonyl)benzamide], the IC50 was 0.13 µM.
The result for `COc1ccc(OCc2cc(F)c(C(=O)NS(C)(=O)=O)cc2F)c2ccccc12` [Example 160, 2,5-difluoro-4-{[(4-methoxy-1-naphthyl)oxy]methyl}-N-(methylsulfonyl)benzamide] reads 0.76 µM; that for `Cc1cc(OCc2cc(F)c(C(=O)NS(C)(=O)=O)cc2F)cc(C)c1C#N` [Example 162, 4-[(4-cyano-3,5-dimethylphenoxy)methyl]-2,5-difluoro-N-(methylsulfonyl)benzamide], 0.73 µM.
The result for `CS(=O)(=O)NC(=O)c1cc(F)c(COc2ccc(F)c(Cl)c2C#N)cc1F` [Example 163, 4-[(3-chloro-2-cyano-4-fluorophenoxy)methyl]-2,5-difluoro-N-(methylsulfonyl)benzamide] reads greater than 1 µM; that for `COc1ccc(OCc2cc(F)c(C(=O)NS(C)(=O)=O)cc2F)cc1` [Example 164, 2,5-difluoro-4-[(4-methoxyphenoxy)methyl]-N-(methylsulfonyl)benzamide], greater than 3 µM; that for `CS(=O)(=O)NC(=O)c1cc(F)c(COc2cccc3ccccc23)cc1F` [Example 165, 2,5-difluoro-N-(methylsulfonyl)-4-[(1-naphthyloxy)methyl]benzamide], 0.74 µM.
Regarding `Cc1nc(-c2cccc(OCc3cc(F)c(C(=O)NS(C)(=O)=O)cc3F)c2)no1` [Example 166, 2,5-difluoro-4-{[3-(5-methyl-1,2,4-oxadiazol-3-yl)phenoxy]methyl}-N-(methylsulfonyl)benzamide], the IC50 was 1.3 µM.
The result for `Cc1c(OCc2cc(F)c(C(=O)NS(C)(=O)=O)cc2F)ccc(F)c1F` [Example 167, 4-[(3,4-difluoro-2-methylphenoxy)methyl]-2,5-difluoro-N-(methylsulfonyl)benzamide] reads 2.6 µM.
As for `CS(=O)(=O)NC(=O)c1cc(F)c(COc2cccc(N3CCCCC3)c2)cc1F` [Example 168, 2,5-difluoro-N-(methylsulfonyl)-4-[(3-piperidin-1-ylphenoxy)methyl]benzamide], the IC50 is 3.1 µM.
Take `COc1ccccc1COc1ccc(C(=O)NS(C)(=O)=O)cc1` [Example 169, 4-[(2-methoxybenzyl)oxy]-N-(methylsulfonyl)benzamide]: the IC50 was greater than 3 µM.
As to `CS(=O)(=O)NC(=O)c1ccc(OCc2cccc(F)c2F)cc1` [Example 170, 4-[(2,3-difluorobenzyl)oxy]-N-(methylsulfonyl)benzamide], the IC50 is greater than 3 µM.
The figure for `CS(=O)(=O)NC(=O)c1ccc(OCc2ccc(F)cc2Cl)cc1` [Example 171, 4-[(2-chloro-4-fluorobenzyl)oxy]-N-(methylsulfonyl)benzamide] is 2.9 µM; for `CS(=O)(=O)NC(=O)c1ccc(OCc2ccc(C#N)cc2)cc1` [Example 172, 4-[(4-cyanobenzyl)oxy]-N-(methylsulfonyl)benzamide] it is greater than 3 µM.
The figure for `CS(=O)(=O)NC(=O)c1ccc(OCc2cc(Cl)cc(Cl)c2)cc1` [Example 173, 4-[(3,5-dichlorobenzyl)oxy]-N-(methylsulfonyl)benzamide] is 0.25 µM; for `CS(=O)(=O)NC(=O)c1ccc(OCC2CCCCC2)cc1` [Example 174, 4-(cyclohexylmethoxy)-N-(methylsulfonyl)benzamide] it is 1.3 µM; for `CS(=O)(=O)NC(=O)c1ccc(OCc2cc(Cl)ccc2Cl)cc1` [Example 175, 4-[(2,5-dichlorobenzyl)oxy]-N-(methylsulfonyl)benzamide] it is 2.1 µM.
Regarding `CS(=O)(=O)NC(=O)c1ccc(OCc2ccc(F)cc2)cc1` [Example 176, 4-[(4-fluorobenzyl)oxy]-N-(methylsulfonyl)benzamide], the IC50 was greater than 1 µM.
The figure for `CS(=O)(=O)NC(=O)c1ccc(OCc2ccc(F)c(F)c2)cc1` [Example 177, 4-[(3,4-difluorobenzyl)oxy]-N-(methylsulfonyl)benzamide] is 2.1 µM; for `CS(=O)(=O)NC(=O)c1ccc(OCc2ccc(Cl)c(F)c2)cc1` [Example 178, 4-[(4-chloro-3-fluorobenzyl)oxy]-N-(methylsulfonyl)benzamide] it is 0.81 µM.
In the case of `CS(=O)(=O)NC(=O)c1ccc(OCc2cccc(C(F)(F)F)c2)cc1` [Example 179, N-(methylsulfonyl)-4-{[3-(trifluoromethyl)benzyl]oxy}benzamide], the IC50 is greater than 1 µM.
The result for `CS(=O)(=O)NC(=O)c1ccc(OCc2ccccc2F)cc1` [Example 180, 4-[(2-fluorobenzyl)oxy]-N-(methylsulfonyl)benzamide] reads greater than 3 µM; that for `CS(=O)(=O)NC(=O)c1ccc(OCc2ccc(OC(F)(F)F)cc2)cc1` [Example 181, N-(methylsulfonyl)-4-{[4-(trifluoromethoxy)benzyl]oxy}benzamide], 0.57 µM; that for `CS(=O)(=O)NC(=O)c1ccc(OCc2c(F)cccc2Cl)cc1` [Example 182, 4-[(2-chloro-6-fluorobenzyl)oxy]-N-(methylsulfonyl)benzamide], greater than 1 µM.
Turning to `CS(=O)(=O)NC(=O)c1ccc(OCc2ccccc2C(F)(F)F)cc1` [Example 183, N-(methylsulfonyl)-4-{[2-(trifluoromethyl)benzyl]oxy}benzamide], the IC50 is 4.3 µM.
For `CS(=O)(=O)NC(=O)c1ccc(OCc2c(Cl)cccc2Cl)cc1` [Example 184, 4-[(2,6-dichlorobenzyl)oxy]-N-(methylsulfonyl)benzamide], the IC50 was 2.6 µM.
For the compound `COc1cc(COc2ccc(C(=O)NS(C)(=O)=O)cc2)ccc1F` [Example 185, 4-[(4-fluoro-3-methoxybenzyl)oxy]-N-(methylsulfonyl)benzamide], the IC50 is greater than 1 µM.
Consider `CS(=O)(=O)NC(=O)c1ccc(OCc2ccccc2Cl)cc1` [Example 186, 4-[(2-chlorobenzyl)oxy]-N-(methylsulfonyl)benzamide], for which the IC50 is 7.3 µM.
In the case of `CS(=O)(=O)NC(=O)c1ccc(OCc2cc(F)cc(F)c2)cc1` [Example 187, 4-[(3,5-difluorobenzyl)oxy]-N-(methylsulfonyl)benzamide], the IC50 was 4.2 µM.
The figure for `COc1ccc(F)c(COc2ccc(C(=O)NS(C)(=O)=O)cc2)c1` [Example 188, 4-[(2-fluoro-5-methoxybenzyl)oxy]-N-(methylsulfonyl)benzamide] is 2.5 µM.
For `CS(=O)(=O)NC(=O)c1ccc(OCc2cccc(Cl)c2Cl)cc1` [Example 189, 4-[(2,3-dichlorobenzyl)oxy]-N-(methylsulfonyl)benzamide], the IC50 was 1.5 µM.
The result for `CS(=O)(=O)NC(=O)c1ccc(OCc2ccc(Cl)cc2Cl)cc1` [Example 190, 4-[(2,4-dichlorobenzyl)oxy]-N-(methylsulfonyl)benzamide] reads 0.62 µM.
On to `CS(=O)(=O)NC(=O)c1ccc(OCC2CCCC2)cc1` [Example 191, 4-(cyclopentylmethoxy)-N-(methylsulfonyl)benzamide], for which the IC50 is 7.6 µM.
Consider `CS(=O)(=O)NC(=O)c1cc(F)c(OCc2cccc(C(F)(F)F)c2)cc1F` [Example 192, 2,5-difluoro-N-(methylsulfonyl)-4-{[3-(trifluoromethyl)benzyl]oxy}benzamide], for which the IC50 is 3.1 µM.
As for `CS(=O)(=O)NC(=O)c1cc(F)c(OCc2ccc(C(F)(F)F)cc2)cc1F` [Example 193, 2,5-difluoro-N-(methylsulfonyl)-4-{[4-(trifluoromethyl)benzyl]oxy}benzamide], the IC50 was 4.7 µM.
